Test results from US20250263753A1, “BRIDGED CYCLE-BASED INHIBITORS OF DNA-DEPENDENT PROTEIN KINASE AND COMPOSITIONS AND APPLICATION IN GENE EDITING” (Juno Therapeutics, Inc., priority 2023, published 2025).
Where two headings read alike, the source gives them in different places.

How the values were obtained:
[1] = biological target: PI3Kδ (His-PIK3CD/PIK3R1, p110 delta/p85 alpha) (Homo sapiens (Human), UniProt O00329); assay: PI3Kδ biochemical assay (HTRF/FRET probe); assay type: binding
Experimental: Phosphoinositide 3-kinase (PI3K) Biochemical Assay: A solution was prepared containing 0.2 nM Anti-HIS-Terbium (Cisbio, 64CUSTAZU), 40 nM designed-probe and 1.0 nM His-PIK3CD/PIK3R1 (p110 delta/p85 alpha) in FRET Buffer (20 mM HEPES, 10 mM MgCl2, 0.015% Brij-35, 4 mM DTT, 0.05 mg/mL BSA).

ATM = ATM (Homo sapiens (Human), UniProt Q13315); assay: ATM biochemical assay (Reaction Biology HTRF kinase assay, 10 μM ATP)
ATM, sequence (Q13315 whole entry): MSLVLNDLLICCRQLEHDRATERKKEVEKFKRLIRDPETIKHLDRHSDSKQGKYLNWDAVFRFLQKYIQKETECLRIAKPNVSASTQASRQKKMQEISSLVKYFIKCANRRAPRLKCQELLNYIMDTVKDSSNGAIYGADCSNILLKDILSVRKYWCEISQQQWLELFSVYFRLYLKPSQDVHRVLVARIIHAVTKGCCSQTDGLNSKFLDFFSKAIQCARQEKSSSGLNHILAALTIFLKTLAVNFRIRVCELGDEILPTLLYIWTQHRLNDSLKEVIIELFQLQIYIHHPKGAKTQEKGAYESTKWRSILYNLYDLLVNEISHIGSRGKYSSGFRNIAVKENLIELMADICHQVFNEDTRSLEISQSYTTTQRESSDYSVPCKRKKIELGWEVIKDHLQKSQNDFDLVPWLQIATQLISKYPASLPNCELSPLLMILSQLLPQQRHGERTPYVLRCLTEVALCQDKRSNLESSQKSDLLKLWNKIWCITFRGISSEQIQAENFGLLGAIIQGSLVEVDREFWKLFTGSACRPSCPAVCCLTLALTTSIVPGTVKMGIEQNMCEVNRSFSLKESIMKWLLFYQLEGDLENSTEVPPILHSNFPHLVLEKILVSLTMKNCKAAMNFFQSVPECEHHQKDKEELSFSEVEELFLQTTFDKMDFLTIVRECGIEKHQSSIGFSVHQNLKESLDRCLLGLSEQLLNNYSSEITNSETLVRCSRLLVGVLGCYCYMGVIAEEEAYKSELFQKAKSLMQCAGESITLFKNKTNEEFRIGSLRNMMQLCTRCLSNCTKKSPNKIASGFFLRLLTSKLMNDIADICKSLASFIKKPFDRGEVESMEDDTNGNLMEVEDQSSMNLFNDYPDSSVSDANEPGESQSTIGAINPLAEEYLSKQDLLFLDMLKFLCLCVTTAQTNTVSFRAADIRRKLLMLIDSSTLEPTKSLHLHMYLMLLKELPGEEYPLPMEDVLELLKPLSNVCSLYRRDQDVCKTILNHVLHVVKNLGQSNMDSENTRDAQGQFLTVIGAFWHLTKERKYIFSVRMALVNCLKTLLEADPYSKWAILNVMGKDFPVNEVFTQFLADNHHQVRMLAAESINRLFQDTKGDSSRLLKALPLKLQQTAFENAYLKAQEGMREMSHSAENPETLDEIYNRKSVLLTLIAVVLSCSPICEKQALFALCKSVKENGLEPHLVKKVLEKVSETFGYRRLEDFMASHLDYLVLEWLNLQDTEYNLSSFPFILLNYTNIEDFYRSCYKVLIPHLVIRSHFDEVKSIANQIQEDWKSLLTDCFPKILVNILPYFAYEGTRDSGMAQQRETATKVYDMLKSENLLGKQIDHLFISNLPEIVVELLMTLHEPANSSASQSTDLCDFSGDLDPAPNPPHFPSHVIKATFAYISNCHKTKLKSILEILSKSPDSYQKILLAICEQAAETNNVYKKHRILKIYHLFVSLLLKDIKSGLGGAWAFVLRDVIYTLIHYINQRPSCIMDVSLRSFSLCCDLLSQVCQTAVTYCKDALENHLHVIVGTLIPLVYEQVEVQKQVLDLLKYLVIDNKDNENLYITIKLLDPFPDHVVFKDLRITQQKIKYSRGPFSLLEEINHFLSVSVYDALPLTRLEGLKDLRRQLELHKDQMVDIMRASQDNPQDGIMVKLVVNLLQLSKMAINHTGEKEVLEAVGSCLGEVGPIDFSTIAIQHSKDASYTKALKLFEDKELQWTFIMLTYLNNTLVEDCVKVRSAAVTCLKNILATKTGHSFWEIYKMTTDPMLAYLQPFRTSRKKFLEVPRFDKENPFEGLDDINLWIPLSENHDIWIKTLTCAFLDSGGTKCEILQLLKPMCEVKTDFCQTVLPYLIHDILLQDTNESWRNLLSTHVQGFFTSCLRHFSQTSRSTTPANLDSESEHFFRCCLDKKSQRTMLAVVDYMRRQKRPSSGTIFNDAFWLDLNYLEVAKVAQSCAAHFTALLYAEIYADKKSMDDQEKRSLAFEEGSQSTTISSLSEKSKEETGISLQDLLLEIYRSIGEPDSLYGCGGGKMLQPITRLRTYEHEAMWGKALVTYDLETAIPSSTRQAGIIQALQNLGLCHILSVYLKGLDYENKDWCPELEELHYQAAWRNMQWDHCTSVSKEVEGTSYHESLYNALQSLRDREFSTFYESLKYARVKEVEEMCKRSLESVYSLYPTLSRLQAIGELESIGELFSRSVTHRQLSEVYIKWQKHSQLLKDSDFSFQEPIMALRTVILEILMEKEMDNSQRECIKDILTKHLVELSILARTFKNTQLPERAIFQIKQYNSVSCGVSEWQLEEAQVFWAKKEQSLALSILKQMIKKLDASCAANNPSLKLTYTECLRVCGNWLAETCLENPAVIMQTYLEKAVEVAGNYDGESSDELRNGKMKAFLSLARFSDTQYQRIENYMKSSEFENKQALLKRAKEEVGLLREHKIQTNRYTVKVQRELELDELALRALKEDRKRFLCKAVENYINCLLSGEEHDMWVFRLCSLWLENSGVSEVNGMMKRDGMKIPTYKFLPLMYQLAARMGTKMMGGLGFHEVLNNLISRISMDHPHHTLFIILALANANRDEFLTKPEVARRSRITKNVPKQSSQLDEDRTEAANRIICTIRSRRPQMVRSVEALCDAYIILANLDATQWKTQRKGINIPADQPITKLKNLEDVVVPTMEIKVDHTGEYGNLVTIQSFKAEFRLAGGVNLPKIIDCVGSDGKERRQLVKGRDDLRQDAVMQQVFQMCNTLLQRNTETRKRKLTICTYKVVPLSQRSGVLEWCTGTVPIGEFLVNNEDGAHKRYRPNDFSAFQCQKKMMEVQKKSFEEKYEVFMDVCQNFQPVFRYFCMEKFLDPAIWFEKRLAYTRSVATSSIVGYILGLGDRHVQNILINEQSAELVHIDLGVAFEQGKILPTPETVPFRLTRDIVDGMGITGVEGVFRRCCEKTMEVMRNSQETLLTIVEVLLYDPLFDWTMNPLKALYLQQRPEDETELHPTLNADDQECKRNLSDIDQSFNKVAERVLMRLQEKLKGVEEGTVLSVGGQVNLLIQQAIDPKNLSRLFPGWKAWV
Experimental: Ataxia-Telangiectasia Mutated (ATM) Biochemical Assay Using Reaction Biology's HTRF Kinase Assay Protocol:
The assay detects kinase activity by antibody based HTRF assay. The GST-tagged p53 protein serves as substrate and Eu-labeled-antibody with specific phosphorylation site binds upon phosphorylation which is monitored by HTRF from the anti-GST-d2.
Reagent: Reaction buffer; 50 mM Hepes (pH 7.5), 150 mM NaCl, 10 mM MnCl2, 1% Glycerol, 0.01% Brij35, 1 mM DTT, 1% DMSO.
Substrate: Human p53 (aa2-393), RBC produced in E. coli, N-terminal GST-Tag, MW=70.42 kDa.
Detection; MAb Anti-p53-pS15-Eu cryptate, CisBio cat #61P08KAZ; MAb Anti GST-d2
Reaction Procedure: 1. Deliver 2× Enzyme in wells of reaction plate except No E control wells. Add buffer instead; 2. Deliver compounds in 100% DMSO into the kinase reaction mixture by Acoustic technology (Echo550; nanoliter range), incubate for 30 min at room temperature; 3. Deliver 2× substrate+ATP mixture into the reaction mixture to initiate the reaction; 4. Incubate for 2 hours at room temperature.
HTRF Detection: 1. Deliver 2× Stop/Detection mixture and incubate for 2 hours to overnight in the dark. 2. HTRF measurement (Ex/Em1/Em2=320/615/665 nm) in EnVision.

DNA-PK = DNA-PK (Homo sapiens (Human), UniProt P78527); assay: DNA-PK biochemical assay (Reaction Biology HotSpot kinase assay, 10 μM ATP)
Experimental: DNA-PK Biochemical Assay Using Reaction Biology's HotSpot Kinase Assay Protocol:
Reagent: Base Reaction buffer; 20 mM Hepes (pH 7.5), 10 mM MgCl2, 1 mM EGTA, 0.01% Brij35, 0.02 mg/ml BSA, 0.1 mM Na3VO4, 2 mM DTT, 1% DMSO Required cofactors are added individually to each kinase reaction.
Reaction Procedure: 1. Prepare substrate in freshly prepared Reaction Buffer; 2. Deliver any required cofactors to the substrate solution above; 3. Deliver kinase into the substrate solution and gently mix; 4. Deliver compounds in 100% DMSO into the kinase reaction mixture by Acoustic technology (Echo550; nanoliter range), incubate for 20 min at room temperature; 5. Deliver 33P-ATP into the reaction mixture to initiate the reaction; 6. Incubate for 2 hours at room temperature; 7. Detect kinase activity by P81 filter-binding method.

[2] = biological target: PI3Kα (His-PIK3CA/PIK3R1, p110 alpha/p85 alpha) (Homo sapiens (Human), UniProt P42336); assay: PI3Kα biochemical assay (HTRF/FRET probe); assay type: binding
Experimental: Phosphoinositide 3-kinase α (PI3Kα) Biochemical Assay: A solution was prepared containing 0.2 nM Anti-HIS-Terbium (Cisbio, 64CUSTAZU), 3.7 nM designed-probe and 1.0 nM His-PIK3CA/PIK3R1 (p110 alpha/p85 alpha) in FRET Buffer (20 mM HEPES, 10 mM MgCl2, 0.015% Brij-35, 4 mM DTT, 0.05 mg/mL BSA).

[3] = read-out: DNA-PK HotSpot 10 μM ATP IC50, class symbol
[4] = read-out: ATM HTRF 10 μM ATP IC50, class symbol

PI3Kδ (His-PIK3CD/PIK3R1, p110 delta/p85 alpha), sequence (O00329 whole entry, species assumed): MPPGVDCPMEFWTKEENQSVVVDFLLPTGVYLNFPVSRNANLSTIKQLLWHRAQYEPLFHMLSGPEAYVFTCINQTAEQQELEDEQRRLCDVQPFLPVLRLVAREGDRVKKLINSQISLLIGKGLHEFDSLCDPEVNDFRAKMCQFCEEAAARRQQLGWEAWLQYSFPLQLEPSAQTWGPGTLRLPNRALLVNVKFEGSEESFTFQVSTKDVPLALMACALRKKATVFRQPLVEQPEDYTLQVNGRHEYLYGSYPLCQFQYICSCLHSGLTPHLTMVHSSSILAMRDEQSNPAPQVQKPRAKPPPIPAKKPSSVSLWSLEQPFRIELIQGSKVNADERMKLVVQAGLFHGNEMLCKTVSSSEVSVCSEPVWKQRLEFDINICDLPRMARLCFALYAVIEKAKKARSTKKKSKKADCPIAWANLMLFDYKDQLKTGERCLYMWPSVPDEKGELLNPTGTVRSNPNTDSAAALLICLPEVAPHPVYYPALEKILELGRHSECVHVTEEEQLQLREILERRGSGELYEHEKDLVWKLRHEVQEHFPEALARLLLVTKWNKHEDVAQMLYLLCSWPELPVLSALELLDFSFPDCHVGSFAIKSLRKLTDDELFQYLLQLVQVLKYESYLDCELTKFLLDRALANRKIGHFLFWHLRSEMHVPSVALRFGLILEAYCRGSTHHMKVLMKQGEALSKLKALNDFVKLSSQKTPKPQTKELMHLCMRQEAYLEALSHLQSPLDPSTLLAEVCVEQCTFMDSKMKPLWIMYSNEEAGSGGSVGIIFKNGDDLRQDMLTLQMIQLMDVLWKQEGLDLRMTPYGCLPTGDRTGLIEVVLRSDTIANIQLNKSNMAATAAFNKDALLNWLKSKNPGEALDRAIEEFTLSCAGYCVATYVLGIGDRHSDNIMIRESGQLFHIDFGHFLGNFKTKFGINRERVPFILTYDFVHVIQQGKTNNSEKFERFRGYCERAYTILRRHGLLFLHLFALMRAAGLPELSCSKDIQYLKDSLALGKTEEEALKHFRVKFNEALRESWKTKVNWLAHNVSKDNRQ
PI3Kδ (His-PIK3CD/PIK3R1, p110 delta/p85 alpha), sequence (P27986 whole entry partner, species assumed): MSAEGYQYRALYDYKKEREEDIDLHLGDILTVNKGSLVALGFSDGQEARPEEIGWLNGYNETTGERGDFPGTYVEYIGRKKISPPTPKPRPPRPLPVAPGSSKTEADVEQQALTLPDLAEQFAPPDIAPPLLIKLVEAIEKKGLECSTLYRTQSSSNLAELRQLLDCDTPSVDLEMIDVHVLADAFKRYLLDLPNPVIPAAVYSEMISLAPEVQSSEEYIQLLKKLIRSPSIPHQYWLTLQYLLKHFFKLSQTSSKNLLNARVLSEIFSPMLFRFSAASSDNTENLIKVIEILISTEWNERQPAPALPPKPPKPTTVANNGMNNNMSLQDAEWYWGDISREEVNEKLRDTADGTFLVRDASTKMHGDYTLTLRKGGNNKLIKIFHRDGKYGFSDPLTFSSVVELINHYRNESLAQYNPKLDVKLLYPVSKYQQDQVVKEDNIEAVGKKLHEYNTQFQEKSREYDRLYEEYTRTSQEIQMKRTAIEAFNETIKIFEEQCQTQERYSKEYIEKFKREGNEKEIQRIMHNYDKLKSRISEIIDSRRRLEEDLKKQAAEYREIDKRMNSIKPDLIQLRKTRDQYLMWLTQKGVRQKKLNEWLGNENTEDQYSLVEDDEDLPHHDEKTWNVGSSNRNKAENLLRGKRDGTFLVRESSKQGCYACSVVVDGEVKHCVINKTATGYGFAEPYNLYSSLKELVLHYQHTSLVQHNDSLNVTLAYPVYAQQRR

IC50 ([1]; class symbol) | IC50 (ATM; class symbol) | IC50 (DNA-PK; [3]) | IC50 ([2]; class symbol) | IC50 (ATM; [4]) | IC50 (DNA-PK; class symbol) | IC50 ([1]; numeric value) | IC50 (ATM; read-out: ATM HTRF 10 μM ATP IC50, numeric value) | IC50 (DNA-PK; read-out: DNA-PK HotSpot 10 μM ATP IC50, numeric value) | IC50 ([2]; numeric value) | SMILES
≥ 1000 nM | 10 to 100 nM | < 1 nM | ≥ 1000 nM | – | – | – | – | – | – | COC12CCC(N3CC(=O)N(C)c4cnc(Nc5cn6ncnc6cc5C)nc43)(CC1)C2 [Compound 62, 8-(4-methoxybicyclo[2.2.1]heptan-1-yl)-5-methyl-2-((7-methyl-[1,2,4]triazolo[1,5-a]pyridin-6-yl)amino)-7,8-dihydropteridin-6(5H)-one]
100 to 1000 nM | 1 to 10 nM | < 1 nM | 10 to 100 nM | – | – | – | – | – | – | Cc1cc2nsnc2cc1Nc1ncc2c(n1)N(C13CCC(O)(CC1)C3)CC(=O)N2C [Compound 55, 8-{4-Hydroxybicyclo[2.2.1]heptan-1-yl}-5-methyl-2-[(6-methyl-2,1,3-benzothiadiazol-5-yl)amino]-5,6,7,8-tetrahydropteridin-6-one]
≥ 1000 nM | – | – | ≥ 1000 nM | ≥ 1000 nM | 1 to 10 nM | – | – | – | – | Cc1cc2c(cc1Nc1ncc3c(n1)N(C14CC(F)(C1)C4)C(=O)C31CC1)OCO2 [Compound 76, 7′-(3-fluorobicyclo[1.1.1]pentan-1-yl)-2′-((6-methylbenzo[d][1,3]dioxol-5-yl)amino)spiro[cyclopropane-1,5′-pyrrolo[2,3-d]pyrimidin]-6′(7′H)-one]
≥ 1000 nM | 100 to 1000 nM | < 1 nM | 100 to 1000 nM | – | – | – | – | – | – | Cc1cc2nccnc2cc1Nc1ncc2c(n1)N(C13CC(F)(C1)C3)C(=O)C21CC1 [Compound 72, 7′-(3-fluorobicyclo[1.1.1]pentan-1-yl)-2′-((7-methylquinoxalin-6-yl)amino)spiro[cyclopropane-1,5′-pyrrolo[2,3-d]pyrimidin]-6′(7′H)-one]
≥ 1000 nM | 100 to 1000 nM | – | ≥ 1000 nM | – | 1 to 10 nM | – | – | – | – | Cc1cc2c(cc1Nc1ncc3c(n1)n(C14CC(C#N)(C1)C4)c(=O)n3C)OCO2 [Compound 17, 3-(7-methyl-2-((6-methylbenzo[d][1,3]dioxol-5-yl)amino)-8-oxo-7,8-dihydro-9H-purin-9-yl) bicyclo[1.1.1]pentane-1-carbonitrile]
100 to 1000 nM | – | < 1 nM | 100 to 1000 nM | ≥ 1000 nM | – | – | – | – | – | Cc1cc2c(cc1Nc1ncc3c(n1)N(C14CCC(O)(CC1)C4)C(=O)C31CC1)OCO2 [Compound 68, 7′-(4-hydroxybicyclo[2.2.1]heptan-1-yl)-2′-((6-methylbenzo[d][1,3]dioxol-5-yl)amino)spiro[cyclopropane-1,5′-pyrrolo[2,3-d]pyrimidin]-6′(7′H)-one]
100 to 1000 nM | 10 to 100 nM | – | 100 to 1000 nM | – | < 1 nM | 214 nM | 36 nM | 0.71 nM | 152 nM | Cc1cc2ncnn2cc1Nc1ncc2c(n1)n(C13CCC(O)(CC1)CC3)c(=O)n2C [Compound 78, 9-(4-hydroxybicyclo[2.2.2]octan-1-yl)-7-methyl-2-((7-methyl-[1,2,4]triazolo[1,5-a]pyridin-6-yl)amino)-7,9-dihydro-8H-purin-8-one]
10 to 100 nM | 100 to 1000 nM | – | 100 to 1000 nM | – | 1 to 10 nM | – | – | – | – | Cc1cc2nccnc2cc1Nc1ncc2c(n1)n(C13CCC(O)(CC1)C3)c(=S)n2C [Compound 33, 9-(4-hydroxybicyclo[2.2.1]heptan-1-yl)-7-methyl-2-((7-methylquinoxalin-6-yl)amino)-7,9-dihydro-8H-purine-8-thione]
≥ 1000 nM | 10 to 100 nM | < 1 nM | 100 to 1000 nM | – | – | – | – | – | – | Cc1cc2c(cc1Nc1ncc3c(n1)n(C14CCC(C#N)(CC1)CC4)c(=O)n3C)OCO2 [Compound 24, 4-(7-methyl-2-((6-methylbenzo[d][1,3]dioxol-5-yl)amino)-8-oxo-7,8-dihydro-9H-purin-9-yl) bicyclo[2.2.2]octane-1-carbonitrile]
100 to 1000 nM | 1 to 10 nM | < 1 nM | 10 to 100 nM | – | – | – | – | – | – | COC12CCC(N3CC(=O)N(C)c4cnc(Nc5cc6nsnc6cc5C)nc43)(CC1)C2 [Compound 64, 8-(4-methoxybicyclo[2.2.1]heptan-1-yl)-5-methyl-2-((6-methylbenzo[c][1,2,5]thiadiazol-5-yl)amino)-7,8-dihydropteridin-6(5H)-one]
100 to 1000 nM | 100 to 1000 nM | < 1 nM | 10 to 100 nM | – | – | – | – | – | – | Cc1cc2ncnn2cc1Nc1ncc2c(n1)N(C13CCC(O)(CC1)C3)C(=O)C21CC1 [Compound 66, 7′-(4-hydroxybicyclo[2.2.1]heptan-1-yl)-2′-((7-methyl-[1,2,4]triazolo[1,5-a]pyridin-6-yl)amino)spiro[cyclopropane-1,5′-pyrrolo[2,3-d]pyrimidin]-6′(7′H)-one]
100 to 1000 nM | 10 to 100 nM | < 1 nM | 100 to 1000 nM | – | – | – | – | – | – | Cc1cc2nonc2cc1Nc1ncc2c(n1)N(C13CCC(O)(CC1)C3)CC(=O)N2C [Compound 60, 8-(4-hydroxybicyclo[2.2.1]heptan-1-yl)-5-methyl-2-((6-methylbenzo[c][1,2,5]oxadiazol-5-yl)amino)-7,8-dihydropteridin-6(5H)-one]
10 to 100 nM | 10 to 100 nM | < 1 nM | – | – | – | – | – | – | – | Cc1cc2ncccc2cc1Nc1ncc2c(n1)N(C13CCC(O)(CC1)C3)CC(=O)N2C [Compound 53, 8-{4-Hydroxybicyclo[2.2.1]heptan-1-yl}-5-methyl-2-[(7-methylquinolin-6-yl)amino]-5,6,7,8-tetrahydropteridin-6-one]
– | 10 to 100 nM | < 1 nM | 10 to 100 nM | – | – | – | – | – | – | Cc1cc2nsnc2cc1Nc1ncc2c(n1)N(C13CCC(O)(CC1)C3)C(=O)C21CC1 [Compound 69, 7′-(4-hydroxybicyclo[2.2.1]heptan-1-yl)-2′-((6-methylbenzo[c][1,2,5]thiadiazol-5-yl)amino)spiro[cyclopropane-1,5′-pyrrolo[2,3-d]pyrimidin]-6′(7′H)-one]
– | – | – | ≥ 1000 nM | ≥ 1000 nM | 1 to 10 nM | – | – | – | – | Cc1cc2c(cc1Nc1ncc3c(n1)n(C14CCC(O)(CC1)C4)c(=S)n3C)OCO2 [Compound 32, 9-(4-hydroxybicyclo[2.2.1]heptan-1-yl)-7-methyl-2-((6-methylbenzo[d][1,3]dioxol-5-yl)amino)-7,9-dihydro-8H-purine-8-thione]
≥ 1000 nM | 10 to 100 nM | – | – | – | 10 to 100 nM | – | – | – | – | Cc1cc(-c2cnn(C)c2)c(F)cc1Nc1ncc2c(n1)n(C13CC(F)(C1)C3)c(=O)n2C [Compound 38, 2-((5-fluoro-2-methyl-4-(1-methyl-1H-pyrazol-4-yl)phenyl)amino)-9-(3-fluorobicyclo[1.1.1]pentan-1-yl)-7-methyl-7,9-dihydro-8H-purin-8-one]
≥ 1000 nM | – | – | – | ≥ 1000 nM | 1 to 10 nM | – | – | – | – | COC12CCC(n3c(=O)n(C)c4cnc(Nc5cc6c(cc5C)OCO6)nc43)(C1)C2 [Compound 28, 9-(4-methoxybicyclo[2.1.1]hexan-1-yl)-7-methyl-2-((6-methylbenzo[d][1,3]dioxol-5-yl)amino)-7,9-dihydro-8H-purin-8-one]
– | 100 to 1000 nM | < 1 nM | ≥ 1000 nM | – | – | – | – | – | – | Cc1cc2nsnc2cc1Nc1ncc2c(n1)N(C13CC(F)(C1)C3)CC(=O)N2C [Compound 58, 8-(3-fluorobicyclo[1.1.1]pentan-1-yl)-5-methyl-2-((6-methylbenzo[c][1,2,5]thiadiazol-5-yl)amino)-7,8-dihydropteridin-6(5H)-one]
